In PubChem BioAssay (NCI):
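Step 1: Grow cells in 96-well plates. Step 2: Expose to compound for 48 hours at 5 concentrations. Step 3: Interpolate endpoints linearly; if unreached, use highest concentration. GI50: concentration for 50% inhibition of growth. At the TGI there is no net growth.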

Tests used:
Test in all cases: NCI anticancer screen, dose series, 48 h
[1] = tested on: 786-0 renal
[2] = tested on: A498 renal
[3] = tested on: A549 NSCLC
[4] = tested on: ACHN renal
[5] = tested on: BT-549 breast
[6] = tested on: CAKI-1 renal
[7] = tested on: CCRF-CEM leukemia
[8] = tested on: COLO 205 colon
[9] = tested on: DU-145 prostate
[10] = tested on: EKVX NSCLC
[11] = tested on: HCC-2998 colon
[12] = tested on: HCT-116 colon
[13] = tested on: HCT-15 colon
[14] = tested on: HL-60(TB) leukemia
[15] = tested on: HOP-62 NSCLC
[16] = tested on: HOP-92 NSCLC
[17] = tested on: HS 578T breast
[18] = tested on: HT29 colon
[19] = tested on: IGROV1 ovarian
[20] = tested on: K-562 leukemia
[21] = tested on: KM12 colon
[22] = tested on: LOX IMVI melanoma
[23] = tested on: M14 melanoma
[24] = tested on: MALME-3M melanoma
[25] = tested on: MCF7 breast
[26] = tested on: MDA-MB-231 breast
[27] = tested on: MDA-MB-435
[28] = tested on: MOLT-4 leukemia
[29] = tested on: NCI-H226 lung
[30] = tested on: NCI-H23 lung
[31] = tested on: NCI-H460 lung
[32] = tested on: NCI-H522 lung
[33] = tested on: NCI/ADR-RES ovarian
[34] = tested on: OVCAR-4 ovarian
[35] = tested on: OVCAR-5 ovarian
[36] = tested on: OVCAR-8 ovarian
[37] = tested on: PC-3 prostate
[38] = tested on: RPMI-8226 leukemia
[39] = tested on: RXF 393 renal
[40] = tested on: SF-268 CNS
[41] = tested on: SF-295 CNS
[42] = tested on: SF-539 CNS
[43] = tested on: SK-MEL-2 melanoma
[44] = tested on: SK-MEL-28 melanoma
[45] = tested on: SK-MEL-5 melanoma
[46] = tested on: SK-OV-3 ovarian
[47] = tested on: SN12C renal
[48] = tested on: SNB-19 CNS
[49] = tested on: SNB-75 CNS
[50] = tested on: SR leukemia
[51] = tested on: SW-620 colon
[52] = tested on: T-47D breast
[53] = tested on: TK-10 renal
[54] = tested on: U251 CNS
[55] = tested on: UACC-257 melanoma
[56] = tested on: UACC-62 melanoma
[57] = tested on: UO-31 renal

Structure (SMILES): CCCC(=O)NC(c1cccnc1)c1ccc2c(C)ccnc2c1O (centres undefined)
- GI50 [1]: 2080 nM
- TGI [1]: > 100000 nM
- GI50 [2]: 2360 nM
- TGI [2]: 16800 nM
- GI50 [3]: 2150 nM
- TGI [3]: > 100000 nM
- GI50 [4]: 651 nM
- TGI [4]: > 100000 nM
- GI50 [5]: 3930 nM
- TGI [5]: > 100000 nM
- GI50 [6]: 1030 nM
- TGI [6]: > 100000 nM
- GI50 [7]: 568 nM
- TGI [7]: > 100000 nM
- GI50 [8]: 1270 nM
- TGI [8]: > 100000 nM
- GI50 [9]: 1700 nM
- TGI [9]: > 100000 nM
- GI50 [10]: 892 nM
- TGI [10]: 20200 nM
- GI50 [11]: 2680 nM
- TGI [11]: > 100000 nM
- GI50 [12]: 538 nM
- TGI [12]: > 100000 nM
- GI50 [13]: 539 nM
- TGI [13]: > 100000 nM
- GI50 [14]: 591 nM
- TGI [14]: 5850 nM
- GI50 [15]: 1500 nM
- TGI [15]: > 100000 nM
- GI50 [16]: 6100 nM
- TGI [16]: > 100000 nM
- GI50 [17]: 8720 nM
- TGI [17]: > 100000 nM
- GI50 [18]: 2210 nM
- TGI [18]: > 100000 nM
- GI50 [19]: 1870 nM
- TGI [19]: > 100000 nM
- GI50 [20]: 851 nM
- TGI [20]: > 100000 nM
- GI50 [21]: 2280 nM
- TGI [21]: > 100000 nM
- GI50 [22]: 697 nM
- TGI [22]: 11700 nM
- GI50 [23]: 1160 nM
- TGI [23]: > 100000 nM
- GI50 [24]: 2180 nM
- TGI [24]: > 100000 nM
- GI50 [25]: 1910 nM
- TGI [25]: > 100000 nM
- GI50 [26]: 2230 nM
- TGI [26]: > 100000 nM
- GI50 [27]: 2890 nM
- TGI [27]: > 100000 nM
- GI50 [28]: 549 nM
- TGI [28]: > 100000 nM
- GI50 [29]: 2750 nM
- TGI [29]: > 100000 nM
- GI50 [30]: 2540 nM
- TGI [30]: > 100000 nM
- GI50 [31]: 576 nM
- TGI [31]: > 100000 nM
- GI50 [32]: 2170 nM
- TGI [32]: > 100000 nM
- GI50 [33]: 442 nM
- TGI [33]: 77500 nM
- GI50 [34]: 995 nM
- TGI [34]: > 100000 nM
- GI50 [35]: 2870 nM
- TGI [35]: > 100000 nM
- GI50 [36]: 1860 nM
- TGI [36]: > 100000 nM
- GI50 [37]: 2540 nM
- TGI [37]: > 100000 nM
- GI50 [38]: 1880 nM
- TGI [38]: > 100000 nM
- GI50 [39]: 2790 nM
- TGI [39]: > 100000 nM
- GI50 [40]: 1810 nM
- TGI [40]: > 100000 nM
- GI50 [41]: 930 nM
- TGI [41]: > 100000 nM
- GI50 [42]: 1740 nM
- TGI [42]: > 100000 nM
- GI50 [43]: 7090 nM
- TGI [43]: > 100000 nM
- GI50 [44]: 2300 nM
- TGI [44]: > 100000 nM
- GI50 [45]: 1690 nM
- TGI [45]: 3650 nM
- GI50 [46]: 2100 nM
- TGI [46]: > 100000 nM
- GI50 [47]: 2370 nM
- TGI [47]: > 100000 nM
- GI50 [48]: 3420 nM
- TGI [48]: > 100000 nM
- GI50 [49]: 3130 nM
- TGI [49]: > 100000 nM
- GI50 [50]: 472 nM
- TGI [50]: > 100000 nM
- GI50 [51]: 1940 nM
- TGI [51]: > 100000 nM
- GI50 [52]: 1290 nM
- TGI [52]: > 100000 nM
- GI50 [53]: 3130 nM
- TGI [53]: > 100000 nM
- GI50 [54]: 1600 nM
- TGI [54]: > 100000 nM
- GI50 [55]: 2460 nM
- TGI [55]: > 100000 nM
- GI50 [56]: 2110 nM
- TGI [56]: 20400 nM
- GI50 [57]: 548 nM
- TGI [57]: 41300 nM
